Consider two molecules from patent EP0567562B1, “METHODS FOR DETECTING GLUCAGON ANTAGONISTS” (ZYMOGENETICS, INC., priority 1991, dated 1996).

The assay relates to glucagon receptor. In words: Glucagon antagonist screening assay: adenylate cyclase reaction with rat liver membranes, cAMP measured by Scintillation Proximity Assay. Type of assay: biochemical.

Excerpt: Young female Sprague-Dawley rats were used for the preparation of liver membranes using the method essentially described by Neville (ibid.) and modified by Pohl et al. (ibid). Ten to 15 rats yielding 60-100 grams of liver were processed per batch. After the rats were euthanized by cervical dislocation, their livers were surgically removed and transferred, as quickly as possible, to an iced beaker. Scissors were used to mince the tissue into pieces approximately 3-6 mm in size. Any connective tissue that was present was removed.
The minced tissue was suspended in ice cold 1 mM sodium bicarbonate at a concentration of approximately 300 g/I. This suspension was processed in batches in a tissue homogenizer with eight strokes of the loose pestle. […]
After centrifugation, as much of the supernatant as possible was carefully decanted and discarded, and the pellets were gently resuspended in the remaining supernatant with three strokes of the loose pestle in a clean tissue homogenizer. […] After thorough mixing, the sucrose concentration was measured with a refractometer and adjusted to between 43.9% and 44 1% sucrose (corresponding to a refractive index between 1.4076 and 1.4080) with either 69% sucrose or water. […]

Turning to glucagon [ZB210], for the setting “yeast culture broth, no exogenous glucagon”, the “stimulation of adenylate cyclase activity by culture broth in the absence of exogenous glucagon” value was “stimulation of adenylate cyclase activity even in the absence of exogenous glucagon”.

As for `CSCC[C@H](NC(=O)[C@H](CC(C)C)NC(=O)[C@H](Cc1c[nH]c2ccccc12)NC(=O)[C@H](CCC(N)=O)NC(=O)[C@@H](NC(=O)[C@H](Cc1ccccc1)NC(=O)[C@H](CC(=O)O)NC(=O)[C@H](CCC(N)=O)NC(=O)[C@H](C)NC(=O)[C@H](CCCNC(=N)N)NC(=O)[C@H](CCCNC(=N)N)NC(=O)[C@H](CO)NC(=O)[C@H](CC(=O)O)NC(=O)[C@H](CC(C)C)NC(=O)[C@H](Cc1ccc(O)cc1)NC(=O)[C@H](CCCCN)NC(=O)[C@H](CO)NC(=O)[C@H](Cc1ccc(O)cc1)NC(=O)[C@H](CC(=O)O)NC(=O)[C@H](CO)NC(=O)[C@@H](NC(=O)[C@H](Cc1ccccc1)NC(=O)[C@@H](NC(=O)CNC(=O)[C@H](CCC(N)=O)NC(=O)[C@@H](N)CO)[C@@H](C)O)[C@@H](C)O)C(C)C)C(=O)N[C@@H](CC(N)=O)C(=O)N[C@H](C(=O)O)[C@@H](C)O` [des-His^1-glucagon], the “antagonist activity: CAMP response of rat liver membranes to three concentrations of glucagon” value (culture broth of the yeast strain, compared with control strains making des-His^1-glucagon and des-His^1-[Glu^9]glucagon) is “weak antagonist”.
